Test results taken from article PMC10504751, “Chalcone/1,3,4-Oxadiazole/Benzimidazole hybrids as novel anti-proliferative agents inducing apoptosis and inhibiting EGFR & BRAFV^600E” (BMC Chemistry, 2023).
Where two headings read alike, the source gives them in different places.

What was measured:
T-47D = assay: NCI one-dose SRB anti-proliferative screen; type: cell-based, human; conditions: for inhibition at 10 µM: Homo sapiens, T47D, read-out: Cell growth inhibition %
Procedure: (§1) The twenty-four synthesized compounds were submitted to the National Cancer Institute (NCI), USA. Eighteen hybrids 7a-h, 7k-r, 7u, and 7v were selected by NCI for one-dose assessment of their anti-proliferative activities at 10 µM dose by Sulforhodamine B colorimetric assay. The assessment was performed in 60 cell lines derived from nine tumor subpanels, comprising lung, leukemia, melanoma, colon, renal, CNS, prostate, breast, and ovarian cancer cell lines.
(§2) The methodology of the NCI anti-proliferative screening has been described in details elsewhere (http://www.dtp.nci.nih.gov).

HCT-116 = assay: NCI one-dose SRB anti-proliferative screen; type: cell-based, human; conditions: for inhibition at 10 µM: Homo sapiens, read-out: Cell growth inhibition %
Procedure: as §1, §2

MOLT-4 = assay: NCI one-dose SRB anti-proliferative screen; type: cell-based, human; conditions: for inhibition at 10 µM: Homo sapiens, read-out: Cell growth inhibition %
Procedure: as §1, §2

K-562 = assay: NCI one-dose SRB anti-proliferative screen; type: cell-based, human; conditions: for inhibition at 10 µM: Homo sapiens, K562, read-out: Cell growth inhibition %
Procedure: as §1, §2

RXF 393 = assay: NCI one-dose SRB anti-proliferative screen; type: cell-based, human; conditions: for inhibition at 10 µM: Homo sapiens, read-out: Cell growth inhibition %
Procedure: as §1, §2

PC-3 = assay: NCI one-dose SRB anti-proliferative screen; type: cell-based; conditions: Homo sapiens, read-out: Cell growth inhibition %
Procedure: as §1, §2

SK-OV-3 = assay: NCI one-dose SRB anti-proliferative screen; type: cell-based; conditions: Homo sapiens, read-out: Cell growth inhibition %
Procedure: as §1, §2

HL-60(TB) = assay: NCI one-dose SRB anti-proliferative screen; type: cell-based; conditions: Homo sapiens, read-out: Cell growth inhibition %
Procedure: as §1, §2

Panc-1 = assay: Propidium iodide anti-proliferative assay; type: cell-based; conditions: Homo sapiens, 48 h incubation, read-out: IC50 ± SEM Panc-1
How it was run: (§3)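 Cells seeded at 3000-7500 cells/well and grown 24 h at 37 °C, then treated with compounds (10 µM in 0.1% DMSO, triplicate; IC50 runs at varied concentrations) for 48 h. PI added, plates frozen 24 h at -80 °C and thawed, fluorescence read at 530/620 nm; % cytotoxicity versus 0.1% DMSO control.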

A-549 = assay: Propidium iodide anti-proliferative assay; type: cell-based; conditions: Homo sapiens, A549; 48 h incubation; read-out: IC50 ± SEM A-549
How it was run: as §3

MCF-7 = assay: Propidium iodide anti-proliferative assay; type: cell-based; conditions: Homo sapiens, MCF7; 48 h incubation; read-out: IC50 ± SEM MCF-7
How it was run: as §3

HT-29 = assay: Propidium iodide anti-proliferative assay; type: cell-based; conditions: Homo sapiens, 48 h incubation, read-out: IC50 ± SEM HT-29
How it was run: as §3

[1] = MTT cell viability assay in normal cells; type: cell-based; conditions: human, MCF-10A normal mammary epithelial cells
How it was run: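 MTT read-out (540 nm after DMSO solubilization) of viability in non-tumour MCF-10A breast epithelial cells. Compounds applied at 50 µM in 0.1% DMSO, cells incubated 4 days at 37°C in quadruplicate.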

[2] = T-47D, Breast cancer, NCI one dose
[3] = HCT-116, Colon cancer, NCI one dose
[4] = RXF 393, Renal cancer, NCI one dose
[5] = PC-3, Prostate Cancer, NCI one dose
[6] = SK-OV-3, Ovarian Cancer, NCI one dose
[7] = HL-60(TB), Leukemia, NCI one dose

SMILES	inhibition at 10 µM (T-47D; [2]) [%]	inhibition at 10 µM (HCT-116; [3]) [%]	inhibition at 10 µM (MOLT-4; MOLT-4, Leukemia, NCI one dose) [%]	inhibition at 10 µM (K-562; K-562, Leukemia, NCI one dose) [%]	inhibition at 10 µM (RXF 393; [4]) [%]	melting point [°C]	inhibition at 10 µM (PC-3; [5]) [%]	inhibition at 10 µM (SK-OV-3; [6]) [%]	inhibition at 10 µM (HL-60(TB); [7]) [%]	IC50 (Panc-1) [µM]	IC50 (A-549) [µM]	IC50 (MCF-7) [µM]	IC50 (HT-29) [µM]	viability at 96 h, 50 µM [1] [%]	also measured
O=C(CSc1nnc(-c2ccc3[nH]c(-c4ccccc4)nc3c2)o1)Nc1ccc(C(=O)/C=C/c2ccccc2)cc1 [Compound 7a, 2-{5-[2-Phenyl-1 H-benzo[d]imidazol-5-yl]-1,3,4-oxadiazol-2-ylthio}-N-{4-[(E)-3-phenylacryloyl]phenyl}acetamide]	1.45	3.03	6.84	0	0	273 to 275	0	0	0	10.4 ± 1.3	9.9 ± 1.1	9.2 ± 1.1	11.2 ± 1.4	91	
COc1ccc(/C=C/C(=O)c2ccc(NC(=O)CSc3nnc(-c4ccc5[nH]c(-c6ccccc6)nc5c4)o3)cc2)cc1OC [Compound 7d, 2-{5-[2-Phenyl-1 H-benzo[d]imidazol-5-yl]-1,3,4-oxadiazol-2-ylthio}-N-{4-[(E)-3-(3,4-dimethoxyphenyl)acryloyl]phenyl}acetamide]	2.51	6.47	7.24	0	0	156 to 158	0	0	0	10.3 ± 1.3	9.7 ± 1.1	8.9 ± 1.1	11.1 ± 1.4	89	
O=C(CSc1nnc(-c2ccc3[nH]c(-c4ccccc4)nc3c2)o1)Nc1ccc(C(=O)/C=C/c2ccc(Cl)cc2)cc1 [Compound 7b, 2-{5-[2-Phenyl-1 H-benzo[d]imidazol-5-yl]-1,3,4-oxadiazol-2-ylthio}-N-{4-[(E)-3-(4-chlorophenyl)acryloyl]phenyl}acetamide]	12.3	8.66	6.55	0	0	263 to 264	0.53	0	0	8.4 ± 1	8.2 ± 0.9	7.9 ± 0.8	9.1 ± 1.1	88	
COc1ccc(-c2nc3cc(-c4nnc(SCC(=O)Nc5ccc(C(=O)/C=C/c6ccc(Cl)cc6)cc5)o4)ccc3[nH]2)cc1OC [Compound 7q, 2-{5-[2-(3,4-Dimethoxyphenyl)-1 H-benzo[d]imidazol-5-yl]-1,3,4-oxadiazol-2-ylthio}-N-{4-[(E)-3-(4-chlorophenyl)acryloyl]phenyl}acetamide]						194 to 195				3.8 ± 0.5	3.4 ± 0.4	3.02 ± 0.3	3.7 ± 0.5	94	inhibition at 10 µM (T-47D; T-47D (Breast Cancer), NCI one dose 10 µM): 10.6%; inhibition at 10 µM (HCT-116; HCT-116 (Colon Cancer), NCI one dose 10 µM): 0%; inhibition at 10 µM (MOLT-4; MOLT-4 (Leukemia), NCI one dose 10 µM): 24.2%; inhibition at 10 µM (K-562; K-562 (Leukemia), NCI one dose 10 µM): 7.27%; inhibition at 10 µM (RXF 393; RXF 393 (Renal Cancer), NCI one dose 10 µM): 0%; inhibition at 10 µM (PC-3; PC-3 (Prostate Cancer), NCI one dose 10 µM): 2.29%; inhibition at 10 µM (SK-OV-3; SK-OV-3 (Ovarian Cancer), NCI one dose 10 µM): 0%; inhibition at 10 µM (HL-60(TB); HL-60(TB) (Leukemia), NCI one dose 10 µM): 11.3%
COc1cc(/C=C/C(=O)c2ccc(NC(=O)CSc3nnc(-c4ccc5[nH]c(-c6ccccc6)nc5c4)o3)cc2)cc(OC)c1OC [Compound 7e, 2-{5-[2-Phenyl-1 H-benzo[d]imidazol-5-yl]-1,3,4-oxadiazol-2-ylthio}-N-{4-[(E)-3-(3,4,5-trimethoxyphenyl)acryloyl]phenyl}acetamide]	11.1	59.2	35	41.7	107	143 to 144	1.05	0	31	1.7 ± 0.3	1.6 ± 0.3	1.25 ± 0.08	1.95 ± 0.3	87	Growth Percent (HCT-116; HCT-116 (Colon Cancer), 10 µM one dose): 40.76%; Growth Percent (MOLT-4; MOLT-4 (Leukemia), 10 µM one dose): 30%; Growth Percent (K-562; K-562 (Leukemia), 10 µM one dose): 58%; Growth Percent (RXF 393; RXF 393 (Renal Cancer), 10 µM one dose): -6.89%
COc1ccc(/C=C/C(=O)c2ccc(NC(=O)CSc3nnc(-c4ccc5[nH]c(-c6ccccc6)nc5c4)o3)cc2)cc1 [Compound 7c, 2-{5-[2-Phenyl-1 H-benzo[d]imidazol-5-yl]-1,3,4-oxadiazol-2-ylthio}-N-{4-[(E)-3-(4-methoxyphenyl)acryloyl]phenyl}acetamide]	47.6	15.1	23.9	3.83	8.38	175 to 177	5.12	0	5.24	5.2 ± 0.4	4.7 ± 0.5	4.15 ± 0.5	5.5 ± 0.5	87	Growth Percent (T-47D; T-47D (Breast Cancer), 10 µM one dose): 52.35%
